From ChEMBL document CHEMBL5360529, “Pyrimidine derivatives with antitubercular activity” (Eur J Med Chem, 2023) come the findings set out here.

The test system of data set [1] is Mycobacterium tuberculosis. The data set can be described thus: Antimycobacterial activity against Mycobacterium tuberculosis H37RV assessed as bacterial growth inhibition. The data set is classed as functional.
Data set [2] relates to Mycobacterium tuberculosis. Nature of the data set: Antimycobacterial activity against Mycobacterium tuberculosis H37Rv infected in po dosed C57BL/6 mouse assessed as bacterial growth inhibition measured after 8 days. The class given is functional. The note with it: 192 h, time 8 day.
For data set [3], the system named is Mycobacterium tuberculosis. Nature of the data set: Antimycobacterial activity against Mycobacterium tuberculosis infected in Macrophage cell (unknown origin) assessed as bacterial growth inhibition. The class given is functional.
The subject of the next data set is HepG2. The data set can be described thus: Anticancer activity against human HepG2 cells assessed as cell growth inhibition. The data set is classed as functional, cell-based.
Data set [4] can be described thus: Selectivity index, ratio of IC50 for anticancer activity against human HepG2 cells to MIC for antimycobacterial activity against Mycobacterium tuberculosis. The note with it: read-out: Selectivity Index. The class given is toxicity, cell-based.
Data set [5] has as its target T1, Thymidylate kinase (Mycobacterium tuberculosis, UniProt P9WKE1).
T1 sequence (P9WKE1 whole entry): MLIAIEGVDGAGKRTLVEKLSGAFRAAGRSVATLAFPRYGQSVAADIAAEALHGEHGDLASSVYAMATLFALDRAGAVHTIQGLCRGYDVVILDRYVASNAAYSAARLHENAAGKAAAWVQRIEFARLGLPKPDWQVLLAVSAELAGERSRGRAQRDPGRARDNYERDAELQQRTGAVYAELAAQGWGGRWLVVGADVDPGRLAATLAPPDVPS
Nature of the data set: Inhibition of Mycobacterium tuberculosis TMPK assessed as inhibition constant.

Data set [6] relates to Mycobacterium tuberculosis. The data set can be described thus: Antimycobacterial activity against Mycobacterium tuberculosis My331/88 assessed as bacterial growth inhibition measured after 14 to 21 day. The data set is classed as functional. The note with it: time 14-21 day.
The target of data set [7] is Adenosine kinase (Homo sapiens, UniProt P55263). Nature of the data set: Inhibition of human ADK.
Adenosine kinase (Homo sapiens, UniProt P55263), sequence (P55263 whole entry): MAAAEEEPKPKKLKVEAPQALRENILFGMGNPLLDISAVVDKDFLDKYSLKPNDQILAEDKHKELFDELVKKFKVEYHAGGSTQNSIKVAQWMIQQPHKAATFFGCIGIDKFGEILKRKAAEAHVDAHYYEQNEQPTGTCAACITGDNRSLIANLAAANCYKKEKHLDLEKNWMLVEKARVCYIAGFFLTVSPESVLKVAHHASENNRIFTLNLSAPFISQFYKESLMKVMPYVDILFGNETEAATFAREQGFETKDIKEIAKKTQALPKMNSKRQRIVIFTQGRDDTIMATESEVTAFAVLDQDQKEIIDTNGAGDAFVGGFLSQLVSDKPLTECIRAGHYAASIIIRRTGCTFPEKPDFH
The target in data set [8] is Adenosine kinase (Mycobacterium tuberculosis (strain CDC 1551 / Oshkosh), UniProt P9WID4). The data set can be described thus: Inhibition of Mycobacterium tuberculosis ADK.
Adenosine kinase (Mycobacterium tuberculosis (strain CDC 1551 / Oshkosh), UniProt P9WID4), sequence (P9WID4 whole entry): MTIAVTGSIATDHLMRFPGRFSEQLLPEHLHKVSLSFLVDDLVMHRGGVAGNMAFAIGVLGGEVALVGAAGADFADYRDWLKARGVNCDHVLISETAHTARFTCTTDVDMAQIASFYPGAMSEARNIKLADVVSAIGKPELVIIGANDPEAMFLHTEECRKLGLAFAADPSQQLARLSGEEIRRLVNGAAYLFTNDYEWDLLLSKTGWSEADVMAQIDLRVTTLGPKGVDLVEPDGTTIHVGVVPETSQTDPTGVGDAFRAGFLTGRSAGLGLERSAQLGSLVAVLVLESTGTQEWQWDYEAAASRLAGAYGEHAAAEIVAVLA
Data set [9] has as its system Mycobacterium tuberculosis. The data set can be described thus: Antimycobacterial activity against Mycobacterium tuberculosis H37Rv assessed as bacterial growth inhibition by microplate Alamar blue assay. The class given is functional. (In general: Alamar Blue is a resazurin reagent that responds to reducing activity.)
Data set [10] is described as follows: Selectivity index, ratio of Ki for human TMPK to Ki for Mycobacterium tuberculosis TMPK.
For data set [11], the system named is Mycobacterium tuberculosis. Nature of the data set: Antimycobacterial activity against Mycobacterium tuberculosis assessed as bacterial growth inhibition measured after 14 to 21 day. The class given is functional. The note with it: time 14-21 day.
The target in data set [12] is T2, Thymidylate kinase (Homo sapiens, UniProt P23919).
T2 sequence (P23919 whole entry): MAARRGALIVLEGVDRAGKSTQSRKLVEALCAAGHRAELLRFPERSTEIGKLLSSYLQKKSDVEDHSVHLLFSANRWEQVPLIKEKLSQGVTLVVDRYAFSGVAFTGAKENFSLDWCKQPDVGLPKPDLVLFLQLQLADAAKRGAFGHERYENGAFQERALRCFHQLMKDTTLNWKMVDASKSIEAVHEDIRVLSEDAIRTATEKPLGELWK
Nature of the data set: Inhibition of human TMPK assessed as inhibition constant.

Each structure is given as a SMILES string. Values after ≈ are worked out from the molar mass of the structure shown.

As a reminder, the IC50 is the point on the concentration scale where inhibition reaches its midpoint. In general, IC90 refers to the point of the concentration-response curve where the effect stands at 90%. Usually Ki stands for a dissociation constant, usually derived from enzyme kinetics or from competition with a known ligand.

Consider `Cc1nn2c(=O)cc(-c3ccccc3)[nH]c2c1-c1ccccc1`, for which the MIC in data set [1] is 3.12 µM.
For `O=c1nc(N2CCN(CC3CCCCC3)CC2)sc2c([N+](=O)[O-])cc(C(F)(F)F)cc12` [MACOZINONE], in [1], the MIC is no more than 0.00019 µg/mL.
As to `COc1c(N2C[C@@H]3CCCN[C@@H]3C2)c(F)cc2c(=O)c(C(=O)O)cn(C3CC3)c12` [MOXIFLOXACIN], the ED99 in [2] stood at 27.7 mg/kg.
For the compound `Cc1nn2c(=O)cc(-c3ccc(F)c(F)c3)[nH]c2c1-c1ccccc1`, the values for the MIC in data set [1] and in data set [3] were 1.56 µM and 2.73 µM (≈ 0.921 µg/mL), respectively. Also, the IC50 with HepG2 was greater than 100 µM. Besides, in data set [4], the selectivity ratio is greater than 36.
Consider `COc1ccc(CNc2nc(C)nc(-c3ccco3)c2NC=O)cc1`, for which the IC90 in [1] was determined as 0.33 µg/mL (≈ 0.975 µM).
For the compound `Cc1cn([C@H]2C[C@H](NC(=O)N[C@H]3C[C@H](c4[nH]c(=O)[nH]c(=O)c4C)O[C@@H]3O)[C@@H](CO)O2)c(=O)[nH]c1=O`, the Ki at Thymidylate kinase [5] came out at 37 µM.
On to `COc1ccc(CNc2nc(F)nc(-c3ccco3)c2NC=O)cc1`, for which, in data set [1], the concentration for an effect of 90% (IC90) is less than 0.2 µg/mL.
Take `OC[C@H]1O[C@@H](n2ccc3c(-c4cc5ccccc5o4)nc(F)nc32)[C@H](O)[C@@H]1O`: the MIC in data set [6] turned out to be 62.5 µM (≈ 24.1 µg/mL). Also, the IC50 at Adenosine kinase [7] was greater than 10 µM; against Adenosine kinase [8], 1.2 µM.
In the case of `CCCSc1nc(Cl)c(C#N)c(-c2cccc(F)c2)n1`, the MIC in data set [9] came out at 0.78 µg/mL.
As to `O=C(C1CCN(c2cc(N3CCOCC3)ncn2)CC1)N1CCC(Oc2ccc(F)cc2)CC1`, the ED99 in data set [2] came to 30 mg/kg.
`O=c1cc(-c2ccc(Cl)cc2)[nH]c2c(-c3ccc(Cl)cc3)cnn12`: the MIC in [1] came to 12.5 µM.
Regarding `N#Cc1c(Cl)nc(SCc2ccc(Cl)cc2)nc1-c1cccs1`, the MIC in [9] was determined as 0.78 µg/mL.
For `Cc1cn([C@@H]2O[C@H](CO)[C@H]3CNC(=S)O[C@H]32)c(=O)[nH]c1=O`, in [10], the Ratio Ki is 200.
For the compound `OC[C@H]1O[C@@H](n2ccc3c(-c4cccc5c4oc4ccccc45)nc(F)nc32)[C@H](O)[C@@H]1O`, the MIC in data set [11] and in [6] was 32 µM (≈ 13.9 µg/mL) each time. In addition, the 50% inhibitory concentration (IC50) on Adenosine kinase [7] is greater than 20 µM; against Adenosine kinase [8] it was 0.18 µM.
In the case of `NCC[C@H](O)C(=O)N[C@@H]1C[C@H](N)[C@@H](O[C@H]2O[C@H](CN)[C@@H](O)[C@H](O)[C@H]2O)[C@H](O)[C@H]1O[C@H]1O[C@H](CO)[C@@H](O)[C@H](N)[C@H]1O` [AMIKACIN], the MIC in [1] stood at 2 µg/mL.
`COc1ccc(-c2cc(=O)n3nc(C)c(-c4ccc(Cl)cc4)c3[nH]2)cc1`: in [1], the MIC was found to be 3.12 µM.
With `CC(=O)NC[C@H]1CN(c2ccc(N3CCOCC3)c(F)c2)C(=O)O1` [LINEZOLID], in [2], the ED99 came to 28 mg/kg.
Regarding `CCCSc1nc(Cl)c(C#N)c(-c2cccs2)n1`, the MIC in [9] is 0.78 µg/mL.
With `COc1ccc(CNc2nc(Cl)nc(-c3ccco3)c2NC=O)cc1`, the IC90 in [1] is 0.29 µg/mL (≈ 0.808 µM).
For `O=C(C1CCN(c2cc(N3CCOCC3)ncn2)CC1)N1CCC(Cc2ccc(F)cc2)CC1`, the ED99 in data set [2] was found to be 29 mg/kg.
On to `CCCSc1nc(Cl)c(C#N)c(-c2ccco2)n1`, for which the MIC in [9] was determined as 0.78 µg/mL.
For `COc1ccc(Cn2cnc3c(-c4ccco4)nc(Cl)nc32)cc1`, the MIC in [1] was determined as 0.78 µg/mL.
Regarding `O=c1cc(CC2CCCCC2)[nH]c2c(-c3ccc(Cl)cc3)cnn12`, in data set [1], the MIC came out at 0.78 µM.
For `Cc1cn([C@H]2C[C@H](O)[C@@H](CNC(=S)Nc3ccc(Cl)c(C(F)(F)F)c3)O2)c(=O)[nH]c1=O`, the Ratio Ki in data set [10] is 600. Also, the inhibition constant (Ki) on Thymidylate kinase [5] stood at 0.6 µM; at Thymidylate kinase [12], 362 µM.
